Reference: PubChem BioAssay AID2060908 (Molecular Pharmacology Branch, DTP, NCI, 2025)

Test system: 186277-243-T-J2-PDC complex spheroids, viability
Test: Anticancer human tumor 186277-243-T-J2-PDC patient-derived colon adenocarcinoma cell line growth inhibition [RAS]
Conditions: for IC50: curve of first compound; for viability, T/C: stronger effect = lower value
In short: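 Tumour cells grown as complex spheroids with HUVEC endothelial cells and mesenchymal stem cells, treated with RAS pathway inhibitor combinations. Each agent spans half-log steps from near clinical Cmax, or 10 microM where Cmax is unknown.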

[1] = second compound 0.00316 µM, first compound 0.0316 µM
[2] = second compound 0.00316 µM, first compound 0.1 µM
[3] = second compound 0.00316 µM, first compound 0.316 µM
[4] = second compound 0.00316 µM, first compound 1 µM
[5] = second compound 0.00316 µM, first compound 3.16 µM
[6] = second compound 0.00316 µM, first compound 10 µM
[7] = second compound 0.01 µM, first compound 0.0316 µM
[8] = second compound 0.01 µM, first compound 0.1 µM
[9] = second compound 0.01 µM, first compound 0.316 µM
[10] = second compound 0.01 µM, first compound 1 µM
[11] = second compound 0.01 µM, first compound 3.16 µM
[12] = second compound 0.01 µM, first compound 10 µM
[13] = second compound 0.0316 µM, first compound 0.0316 µM
[14] = second compound 0.0316 µM, first compound 0.1 µM
[15] = second compound 0.0316 µM, first compound 0.316 µM
[16] = second compound 0.0316 µM, first compound 1 µM
[17] = second compound 0.0316 µM, first compound 3.16 µM
[18] = second compound 0.0316 µM, first compound 10 µM
[19] = second compound 0.1 µM, first compound 0.0316 µM
[20] = second compound 0.1 µM, first compound 0.1 µM
[21] = second compound 0.1 µM, first compound 0.316 µM
[22] = second compound 0.1 µM, first compound 1 µM
[23] = second compound 0.1 µM, first compound 3.16 µM
[24] = second compound 0.1 µM, first compound 10 µM
[25] = second compound 0.316 µM, first compound 0.0316 µM
[26] = second compound 0.316 µM, first compound 0.1 µM
[27] = second compound 0.316 µM, first compound 0.316 µM
[28] = second compound 0.316 µM, first compound 1 µM
[29] = second compound 0.316 µM, first compound 3.16 µM
[30] = second compound 0.316 µM, first compound 10 µM
[31] = second compound 1 µM, first compound 0.0316 µM
[32] = second compound 1 µM, first compound 0.1 µM
[33] = second compound 1 µM, first compound 0.316 µM
[34] = second compound 1 µM, first compound 1 µM
[35] = second compound 1 µM, first compound 3.16 µM
[36] = second compound 1 µM, first compound 10 µM
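Further: spheroids exposed to compounds for 7 days before viability read.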

For `Cc1nc(N2CCC3(CC2)COC(C)C3N)c(CO)nc1Sc1ccnc(N)c1Cl` (stereo unspecified) + C=CC(=O)N1CCN(c2nc(OCC3CCCN3C)nc3c(F)c(-c4nc(N)cc(C)c4C(F)(F)F)c(Cl)cc23)C(C)C1, which IC50 (second compound 0.00316 µM) is on record?
The IC50 was > 10 µM.

And the IC50 (second compound 0.01 µM)?
Its IC50 is > 10 µM.

What about the IC50 (second compound 0.0316 µM) of the same compound?
Its IC50 is > 10 µM.

And the IC50 (second compound 0.1 µM)?
Its IC50 is > 10 µM.

What about the IC50 (second compound 0.316 µM) of the same compound?
The IC50 was > 10 µM.

And the IC50 (second compound 1 µM)?
Its IC50 is > 10 µM.

What about the viability, T/C [1] of the same compound?
The viability, T/C was 102%.

What about the viability, T/C [2] of the same compound?
The viability, T/C was 102%.

And the viability, T/C [3]?
Its viability, T/C is 127%.

And the viability, T/C [4]?
The viability, T/C was 108%.

And the viability, T/C [5]?
Its viability, T/C is 116%.

What about the viability, T/C [6] of the same compound?
Its viability, T/C is 78.9%.

What about the viability, T/C [7] of the same compound?
The viability, T/C was 99.8%.

And the viability, T/C [8]?
The viability, T/C was 101%.

What about the viability, T/C [9] of the same compound?
The viability, T/C was 94.4%.

What about the viability, T/C [10] of the same compound?
The viability, T/C was 85.2%.

And the viability, T/C [11]?
The viability, T/C was 89.2%.

And the viability, T/C [12]?
Its viability, T/C is 78.7%.

And the viability, T/C [13]?
Its viability, T/C is 86.8%.

And the viability, T/C [14]?
Its viability, T/C is 103%.

What about the viability, T/C [15] of the same compound?
Its viability, T/C is 113%.

What about the viability, T/C [16] of the same compound?
Its viability, T/C is 117%.

What about the viability, T/C [17] of the same compound?
The viability, T/C was 83.2%.

What about the viability, T/C [18] of the same compound?
The viability, T/C was 80.4%.

And the viability, T/C [19]?
Its viability, T/C is 94%.

What about the viability, T/C [20] of the same compound?
The viability, T/C was 86.6%.

And the viability, T/C [21]?
Its viability, T/C is 91.6%.

And the viability, T/C [22]?
Its viability, T/C is 104%.

And the viability, T/C [23]?
Its viability, T/C is 87.7%.

And the viability, T/C [24]?
Its viability, T/C is 87.9%.

And the viability, T/C [25]?
Its viability, T/C is 90.6%.

And the viability, T/C [26]?
The viability, T/C was 93.3%.

And the viability, T/C [27]?
Its viability, T/C is 104%.

What about the viability, T/C [28] of the same compound?
The viability, T/C was 115%.

What about the viability, T/C [29] of the same compound?
The viability, T/C was 95.7%.

And the viability, T/C [30]?
Its viability, T/C is 75.8%.

And the viability, T/C [31]?
The viability, T/C was 103%.

And the viability, T/C [32]?
Its viability, T/C is 100%.

And the viability, T/C [33]?
The viability, T/C was 91.8%.

What about the viability, T/C [34] of the same compound?
Its viability, T/C is 99.1%.

And the viability, T/C [35]?
The viability, T/C was 92.6%.

And the viability, T/C [36]?
Its viability, T/C is 83.8%.

Which results are given for `NC1c2ccccc2OC12CCN(c1cnc3c(N4CCCc5ncccc54)n[nH]c3n1)CC2` (stereo unspecified) + C=CC(=O)N1CCN(c2nc(OCC3CCCN3C)nc3c(F)c(-c4nc(N)cc(C)c4C(F)(F)F)c(Cl)cc23)C(C)C1?
IC50 (second compound 0.00316 µM): > 10 µM; IC50 (second compound 0.01 µM): > 10 µM; IC50 (second compound 0.0316 µM): 9.07 µM; IC50 (second compound 0.1 µM): 9.17 µM; IC50 (second compound 0.316 µM): > 10 µM; IC50 (second compound 1 µM): > 10 µM; viability, T/C [1]: 83.8%; viability, T/C [2]: 94.6%; viability, T/C [3]: 101%; viability, T/C [4]: 75%; viability, T/C [5]: 64.4%; viability, T/C [6]: 50.3%; viability, T/C [7]: 100%; viability, T/C [8]: 109%; viability, T/C [9]: 100%; viability, T/C [10]: 67.9%; viability, T/C [11]: 72.6%; viability, T/C [12]: 57.6%; viability, T/C [13]: 95.5%; viability, T/C [14]: 108%; viability, T/C [15]: 89.6%; viability, T/C [16]: 79.4%; viability, T/C [17]: 82.1%; viability, T/C [18]: 45.8%; viability, T/C [19]: 85%; viability, T/C [20]: 96.7%; viability, T/C [21]: 77.4%; viability, T/C [22]: 80.7%; viability, T/C [23]: 84%; viability, T/C [24]: 47.3%; viability, T/C [25]: 108%; viability, T/C [26]: 110%; viability, T/C [27]: 88.7%; viability, T/C [28]: 85.3%; viability, T/C [29]: 84.3%; viability, T/C [30]: 52.4%; viability, T/C [31]: 112%; viability, T/C [32]: 92.5%; viability, T/C [33]: 79.6%; viability, T/C [34]: 88.7%; viability, T/C [35]: 78.5%; viability, T/C [36]: 45%

What does the source list for `Nc1ccn(C2OC(CO)C(O)C2(F)F)c(=O)n1` (stereo unspecified) + C=CC(=O)N1CCN(c2nc(OCC3CCCN3C)nc3c(F)c(-c4nc(N)cc(C)c4C(F)(F)F)c(Cl)cc23)C(C)C1?
IC50 (second compound 0.00316 µM): 0.00506 µM; IC50 (second compound 0.01 µM): 0.00502 µM; IC50 (second compound 0.0316 µM): 0.00455 µM; IC50 (second compound 0.1 µM): 0.00441 µM; IC50 (second compound 0.316 µM): 0.00445 µM; IC50 (second compound 1 µM): < 0.00316 µM; viability, T/C (second compound 0.00316 µM, first compound 0.00316 µM): 73.3%; viability, T/C (second compound 0.00316 µM, first compound 0.01 µM): 16.4%; viability, T/C [1]: 12.9%; viability, T/C [2]: 10.3%; viability, T/C [3]: 11.1%; viability, T/C [4]: 11.5%; viability, T/C (second compound 0.01 µM, first compound 0.00316 µM): 73.9%; viability, T/C (second compound 0.01 µM, first compound 0.01 µM): 14.4%; viability, T/C [7]: 10.9%; viability, T/C [8]: 10.2%; viability, T/C [9]: 9.07%; viability, T/C [10]: 11%; viability, T/C (second compound 0.0316 µM, first compound 0.00316 µM): 65.2%; viability, T/C (second compound 0.0316 µM, first compound 0.01 µM): 17.3%; viability, T/C [13]: 13.5%; viability, T/C [14]: 10.2%; viability, T/C [15]: 10.7%; viability, T/C [16]: 12.2%; viability, T/C (second compound 0.1 µM, first compound 0.00316 µM): 64.1%; viability, T/C (second compound 0.1 µM, first compound 0.01 µM): 15.2%; viability, T/C [19]: 11.7%; viability, T/C [20]: 11.3%; viability, T/C [21]: 10.1%; viability, T/C [22]: 11.8%; viability, T/C (second compound 0.316 µM, first compound 0.00316 µM): 64.3%; viability, T/C (second compound 0.316 µM, first compound 0.01 µM): 16%; viability, T/C [25]: 13.1%; viability, T/C [26]: 11.8%; viability, T/C [27]: 11.8%; viability, T/C [28]: 12.9%; viability, T/C (second compound 1 µM, first compound 0.00316 µM): 45.3%; viability, T/C (second compound 1 µM, first compound 0.01 µM): 18.9%; viability, T/C [31]: 17.2%; viability, T/C [32]: 14.1%; viability, T/C [33]: 13.5%; viability, T/C [34]: 14.8%
